Laboratory results from patent publication US8222278B2, “Treatment of attention-deficit/hyperactivity disorder” (Abbott Laboratories, priority 2008, dated 2012).

Tested on: adults with ADHD
Assay: Study A: treatment-emergent adverse events (safety dataset)

`Clc1cc(N2C[C@@H]3CN[C@@H]3C2)cnc1Cl` [ABT-894, 3-(5,6-Dichloro-pyridin-3-yl)-1S,5S-3,6-diazabicyclo[3.2.0]heptane] was tested, and the “Headache, number of subjects” value (ABT-894 4 mg BID, N = 46) was 4 subjects, the “Lethargy, % of subjects” value (ABT-894 4 mg BID, N = 46) was “(0) %” and the “Lethargy, number of subjects” value (ABT-894 4 mg BID, N = 46) was 0 subjects. The “Muscle Strain, % of subjects” value (ABT-894 4 mg BID, N = 46) was “(0) %”, the “Muscle Strain, number of subjects” value (ABT-894 4 mg BID, N = 46) was 0 subjects and the “Nasal congestion, % of subjects” value (ABT-894 4 mg BID, N = 46) was “(6.5) %”. The “Nasal congestion, number of subjects” value (ABT-894 4 mg BID, N = 46) was 3 subjects, the “Nausea, % of subjects” value (ABT-894 4 mg BID, N = 46) was “(8.7) %” and the “Nausea, number of subjects” value (ABT-894 4 mg BID, N = 46) was 4 subjects. The “Parathesia, % of subjects” value (ABT-894 4 mg BID, N = 46) was “(0) %”, the “Parathesia, number of subjects” value (ABT-894 4 mg BID, N = 46) was 0 subjects and the “Sleep disturbances, % of subjects” value (ABT-894 4 mg BID, N = 46) was “(4.3) %”. For the same compound, the “Sleep disturbances, number of subjects” value (ABT-894 4 mg BID, N = 46) was 2 subjects, the “Somnolence, % of subjects” value (ABT-894 4 mg BID, N = 46) was “(4.3) %” and the “Somnolence, number of subjects” value (ABT-894 4 mg BID, N = 46) was 2 subjects. For the same compound, the “Upper RTI, % of subjects” value (ABT-894 4 mg BID, N = 46) was “(0) %”, the “Upper RTI, number of subjects” value (ABT-894 4 mg BID, N = 46) was 0 subjects and the “Vomiting, % of subjects” value (ABT-894 4 mg BID, N = 46) was “(2.2) %”. For the same compound, the “Vomiting, number of subjects” value (ABT-894 4 mg BID, N = 46) was 1 subjects, the “Any Adverse Event, % of subjects” value (ABT-894 4 mg QD, N = 40) was “(65.0) %” and the “Any Adverse Event, number of subjects” value (ABT-894 4 mg QD, N = 40) was 26 subjects. The “Decreased appetite, % of subjects” value (ABT-894 4 mg QD, N = 40) was “(5.0) %”, the “Decreased appetite, number of subjects” value (ABT-894 4 mg QD, N = 40) was 2 subjects and the “Diarrhea, % of subjects” value (ABT-894 4 mg QD, N = 40) was “(7.5) %”. For the same compound, the “Diarrhea, number of subjects” value (ABT-894 4 mg QD, N = 40) was 3 subjects, the “Dizziness, % of subjects” value (ABT-894 4 mg QD, N = 40) was “(10.0) %” and the “Dizziness, number of subjects” value (ABT-894 4 mg QD, N = 40) was 4 subjects. The “Dry mouth, % of subjects” value (ABT-894 4 mg QD, N = 40) was “(0) %”, the “Dry mouth, number of subjects” value (ABT-894 4 mg QD, N = 40) was 0 subjects and the “Fatigue, % of subjects” value (ABT-894 4 mg QD, N = 40) was “(5.0) %”. For the same compound, the “Fatigue, number of subjects” value (ABT-894 4 mg QD, N = 40) was 2 subjects, the “Feeling hot and cold, % of subjects” value (ABT-894 4 mg QD, N = 40) was “(0) %” and the “Feeling hot and cold, number of subjects” value (ABT-894 4 mg QD, N = 40) was 0 subjects. For the same compound, the “Feeling jittery, % of subjects” value (ABT-894 4 mg QD, N = 40) was “(0) %”, the “Feeling jittery, number of subjects” value (ABT-894 4 mg QD, N = 40) was 0 subjects and the “Headache, % of subjects” value (ABT-894 4 mg QD, N = 40) was “(12.5) %”. The “Headache, number of subjects” value (ABT-894 4 mg QD, N = 40) was 5 subjects, the “Lethargy, % of subjects” value (ABT-894 4 mg QD, N = 40) was “(2.5) %” and the “Lethargy, number of subjects” value (ABT-894 4 mg QD, N = 40) was 1 subjects. The “Muscle Strain, % of subjects” value (ABT-894 4 mg QD, N = 40) was “(0) %”, the “Muscle Strain, number of subjects” value (ABT-894 4 mg QD, N = 40) was 0 subjects and the “Nasal congestion, % of subjects” value (ABT-894 4 mg QD, N = 40) was “(0) %”. For the same compound, the “Nasal congestion, number of subjects” value (ABT-894 4 mg QD, N = 40) was 0 subjects, the “Nausea, % of subjects” value (ABT-894 4 mg QD, N = 40) was “(22.5) %” and the “Nausea, number of subjects” value (ABT-894 4 mg QD, N = 40) was 9 subjects. The “Parathesia, % of subjects” value (ABT-894 4 mg QD, N = 40) was “(0) %”, the “Parathesia, number of subjects” value (ABT-894 4 mg QD, N = 40) was 0 subjects and the “Sleep disturbances, % of subjects” value (ABT-894 4 mg QD, N = 40) was “(7.5) %”. For the same compound, the “Sleep disturbances, number of subjects” value (ABT-894 4 mg QD, N = 40) was 3 subjects, the “Somnolence, % of subjects” value (ABT-894 4 mg QD, N = 40) was “(0) %” and the “Somnolence, number of subjects” value (ABT-894 4 mg QD, N = 40) was 0 subjects. The “Upper RTI, % of subjects” value (ABT-894 4 mg QD, N = 40) was “(7.5) %”, the “Upper RTI, number of subjects” value (ABT-894 4 mg QD, N = 40) was 3 subjects and the “Vomiting, % of subjects” value (ABT-894 4 mg QD, N = 40) was “(10.0) %”. For the same compound, the “Vomiting, number of subjects” value (ABT-894 4 mg QD, N = 40) was 4 subjects, the “Any Adverse Event, number of subjects” value (Total ABT-894, N = 174) was 109 subjects and the “Decreased appetite, % of subjects” value (Total ABT-894, N = 174) was “(1.1) %”. For the same compound, the “Decreased appetite, number of subjects” value (Total ABT-894, N = 174) was 2 subjects, the “Diarrhea, % of subjects” value (Total ABT-894, N = 174) was “(3.4) %” and the “Diarrhea, number of subjects” value (Total ABT-894, N = 174) was 6 subjects. The “Dizziness, % of subjects” value (Total ABT-894, N = 174) was “(6.3) %”, the “Dizziness, number of subjects” value (Total ABT-894, N = 174) was 11 subjects and the “Dry mouth, % of subjects” value (Total ABT-894, N = 174) was “(1.7) %”. For the same compound, the “Dry mouth, number of subjects” value (Total ABT-894, N = 174) was 3 subjects, the “Fatigue, % of subjects” value (Total ABT-894, N = 174) was “(5.2) %” and the “Fatigue, number of subjects” value (Total ABT-894, N = 174) was 9 subjects. The “Feeling hot and cold, % of subjects” value (Total ABT-894, N = 174) was “(0) %”, the “Feeling hot and cold, number of subjects” value (Total ABT-894, N = 174) was 0 subjects and the “Feeling jittery, % of subjects” value (Total ABT-894, N = 174) was “(0) %”. The “Feeling jittery, number of subjects” value (Total ABT-894, N = 174) was 0 subjects, the “Headache, % of subjects” value (Total ABT-894, N = 174) was “(10.3) %” and the “Headache, number of subjects” value (Total ABT-894, N = 174) was 18 subjects. For the same compound, the “Lethargy, % of subjects” value (Total ABT-894, N = 174) was “(0.6) %”, the “Lethargy, number of subjects” value (Total ABT-894, N = 174) was 1 subjects and the “Muscle Strain, % of subjects” value (Total ABT-894, N = 174) was “(1.7) %”. The “Muscle Strain, number of subjects” value (Total ABT-894, N = 174) was 3 subjects, the “Nasal congestion, % of subjects” value (Total ABT-894, N = 174) was “(1.7) %” and the “Nasal congestion, number of subjects” value (Total ABT-894, N = 174) was 3 subjects. The “Nausea, number of subjects” value (Total ABT-894, N = 174) was 21 subjects, the “Parathesia, % of subjects” value (Total ABT-894, N = 174) was “(0) %” and the “Parathesia, number of subjects” value (Total ABT-894, N = 174) was 0 subjects. The “Sleep disturbances, % of subjects” value (Total ABT-894, N = 174) was “(7.5) %”, the “Sleep disturbances, number of subjects” value (Total ABT-894, N = 174) was 13 subjects and the “Somnolence, % of subjects” value (Total ABT-894, N = 174) was “(4.6) %”. The “Somnolence, number of subjects” value (Total ABT-894, N = 174) was 8 subjects, the “Upper RTI, % of subjects” value (Total ABT-894, N = 174) was “(4.0) %” and the “Upper RTI, number of subjects” value (Total ABT-894, N = 174) was 7 subjects. The “Vomiting, % of subjects” value (Total ABT-894, N = 174) was “(3.4) %”, the “Vomiting, number of subjects” value (Total ABT-894, N = 174) was 6 subjects and the Safety and tolerability (adults with ADHD, all doses) was “generally was safe and well tolerated”.
